Test results taken from US9340544B2, “Purinyl derivatives and their use as potassium channel modulators” (NeuroSearch A/S, priority 2007, dated 2016).

Biological target: T1, hSK3 channels (Homo sapiens, UniProt Q9UGI6)
T1 construct: expressed in transfected cells; host or cells: HEK293
Assay: Whole-cell patch-clamp recording of ionic current through SK channels (subtype 3) in HEK293 cells expressing hSK3
Assay type: cell-based
Settings: SK3 activation
Method: The ionic current through small-conductance Ca^2+-activated K^+ channels (SK channels, subtype 3) is recorded using the whole-cell configuration of the patch-clamp technique in a classic patch-clamp set-up using HEK293 tissue culture cells expressing hSK3 channels as described in e.g. WO 2006/100212.
The SC100 value determined is defined as the Stimulating Concentration required for increasing the baseline current by 100%.

Question: Which “The SC100 (Stimulating Concentration required for increasing the baseline current by 100%)” value does the source give for `Cc1cc(CO)n(-c2nc(Nc3ccc(Cl)cc3)c3ncn(C)c3n2)n1` [Compound 13.1, {2-[6-(4-Chloro-phenylamino)-9-methyl-9H-purin-2-yl]-5-methyl-2H-pyrazol-3-yl}-methanol] here?
Answer: The value was 0.2 µM.

Question: For `Cc1cc(C)n(-c2nc(Nc3ccc([N+](=O)[O-])cc3)c3ncn(C)c3n2)n1` [Compound 9.8, [2-(3,5-Dimethyl-pyrazol-1-yl)-9-methyl-9H-purin-6-yl]-(4-nitro-phenyl)-amine], which “The SC100 (Stimulating Concentration required for increasing the baseline current by 100%)” value is on record?
Answer: The value was 0.2 µM.

Question: Which “The SC100 (Stimulating Concentration required for increasing the baseline current by 100%)” value does the source give for `CCn1cnc2c(Nc3ccc(Cl)cc3)nc(-n3nc(C)cc3C)nc21` [Compound 6.4, (4-Chloro-phenyl)-[2-(3,5-dimethyl-pyrazol-1-yl)-9-ethyl-9H-purin-6-yl]-amine] here?
Answer: The value was 0.01 µM.

Question: With `Cc1nn(-c2nc(Nc3ccc(Cl)cc3)c3ncn(C)c3n2)c(C)c1Cl` [Compound 9.16, [2-(4-Chloro-3,5-dimethyl-pyrazol-1-yl)-9-methyl-9H-purin-6-yl]-(4-chloro-phenyl)-amine] as the compound, how does the “The SC100 (Stimulating Concentration required for increasing the baseline current by 100%)” value read?
Answer: Its value is 0.02 µM.

Question: For `Cc1cc(-c2ccco2)nn1-c1nc(Nc2ccc(Cl)cc2)c2ncn(C)c2n1` [Compound 9.18, (4-Chloro-phenyl)-[2-(3-furan-2-yl-5-methyl-pyrazol-1-yl)-9-methyl-9H-purin-6-yl]-amine], which “The SC100 (Stimulating Concentration required for increasing the baseline current by 100%)” value is on record?
Answer: The value was 1.0 µM.

Question: Which “The SC100 (Stimulating Concentration required for increasing the baseline current by 100%)” value does the source give for `CCc1cc(CC)n(-c2nc(Nc3ccc(Cl)cc3)c3ncn(C)c3n2)n1` [Compound 9.14, (4-Chloro-phenyl)-[2-(3,5-diethyl-pyrazol-1-yl)-9-methyl-9H-purin-6-yl]-amine] here?
Answer: The value was 0.6 µM.

Question: For `Cc1cc(C)n(-c2nc(Nc3ccc(Cl)nc3)c3ncn(C)c3n2)n1` [Compound 9.7, (6-Chloro-pyridin-3-yl)-[2-(3,5-dimethyl-pyrazol-1-yl)-9-methyl-9H-purin-6-yl]-amine], which “The SC100 (Stimulating Concentration required for increasing the baseline current by 100%)” value is on record?
Answer: The value was 0.4 µM.

Question: With `Cc1cc(C)n(-c2nc(Nc3ccccc3)c3nc[nH]c3n2)n1` [Compound 14.1, [2-(3,5-Dimethyl-pyrazol-1-yl)-9H-purin-6-yl]-phenyl-amine] as the compound, how does the “The SC100 (Stimulating Concentration required for increasing the baseline current by 100%)” value read?
Answer: The value was 0.2 µM.

Question: How did the “The SC100 (Stimulating Concentration required for increasing the baseline current by 100%)” value turn out when `Cc1cc(C)n(-c2nc(Nc3ccc(F)cc3)c3ncn(C)c3n2)n1` [Compound 9.1, [2-(3,5-Dimethyl-pyrazol-1-yl)-9-methyl-9H-purin-6-yl]-(4-fluoro-phenyl)-amine] was run?
Answer: Its value is 0.05 µM.

Question: How did the “The SC100 (Stimulating Concentration required for increasing the baseline current by 100%)” value turn out when `COCCn1cnc2c(Nc3ccccc3)nc(-n3nc(C)cc3C)nc21` [Compound 15.1, [2-(3,5-Dimethyl-pyrazol-1-yl)-9-(2-methoxy-ethyl)-9H-purin-6-yl-]phenyl-amine] was run?
Answer: The value was 0.4 µM.

Question: How did the “The SC100 (Stimulating Concentration required for increasing the baseline current by 100%)” value turn out when `Cc1cc(C)n(-c2nc(NCCc3ccccc3)c3ncn(C)c3n2)n1` [Compound 9.11, [2-(3,5-Dimethyl-pyrazol-1-yl)-9-methyl-9H-purin-6-yl]-phenethyl-amine] was run?
Answer: The value was 0.2 µM.
